The GI50 is the concentration at which growth is held to half of that of the control. For orientation: TGI means the concentration giving total growth inhibition. A low value points to greater sensitivity of the cells.

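Cultured in 96-well plates, cells were exposed to test compound for 48 hours across five concentrations. GI50 = concentration required for 50% inhibition of growth. At the TGI there is no net growth.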 Some results are limits rather than exact numbers.

Holding throughout (assay): DTP human tumour cell line panel, 48 h
The subject of assay [1] is MALME-3M melanoma.
Assay [2] deals with 786-0 renal.
Assay [3] concerns ACHN renal.
In assay [4] the test system is OVCAR-8 ovarian.
In assay [5] the test system is MCF7 breast.
In assay [6] the test system is OVCAR-3 ovarian.
In assay [7] the test system is A498 renal.
For assay [8], the system named is SK-OV-3 ovarian.
The test system of assay [9] is OVCAR-5 ovarian.
In assay [10] the test system is NCI-H460 lung.

As to `CC/C=C\C[C@H]1C/C=C2/C(=O)C=C[C@@H]2C/C=C\CCCC(=O)O1`, the GI50 is 1.92 µM in [1]; 0.637 µM in assay [2]; 0.197 µM in assay [3]; 0.338 µM in assay [4]; 0.395 µM in assay [5]; 0.734 µM in [6]. The GI50 in assay [7] is 1.82 µM; in assay [8] it was 3.99 µM; in assay [9], 0.567 µM; in [10], 2.16 µM. The TGI in assay [1] is 4.86 µM; in [2], 1.89 µM; in [3], 0.393 µM; in assay [4], 10.7 µM; in assay [5] it was 8.06 µM; in [6], 3.9 µM. The TGI in [7] turned out to be 3.35 µM; in assay [8], 12.9 µM; in assay [9], 2.53 µM; in assay [10], 8.86 µM.

For the compound `CC1=C[C@H]2c3c(c(O)c(O)c4oc(-c5ccccc5)cc(=O)c34)[C@H](c3cc(O)c(O)c4oc(-c5ccccc5)cc(=O)c34)[C@H]2C(C)(C)C1`, the GI50 was 1.57 µM in [1]; 1.71 µM in [2]; 0.679 µM in [3]; 0.68 µM in assay [4]; 0.597 µM in assay [5]; 1.46 µM in assay [6]. Besides, the GI50 in [7] was 0.659 µM; in assay [8], 1.76 µM; in assay [9] it was 3.22 µM; in assay [10], 0.275 µM. The TGI was 7.76 µM in assay [1]; 7.83 µM in assay [2]; 5.67 µM in assay [3]; above 75 µM in assay [4]; 9.16 µM in assay [5]; 12 µM in assay [6]. Further, the TGI is 3.72 µM in [7], 10.9 µM in assay [8], 13 µM in [9] and 1.83 µM in assay [10].

As to `CN(C)C(=O)[C@H](O)[C@H](Cc1ccccc1)NC(=O)c1cc2cc(Cl)ccc2[nH]1`, the GI50 is 16.2 µM in assay [1]; 27.3 µM in assay [2]; 22.2 µM in assay [3]; 28.8 µM in assay [4]; 22.1 µM in [5]; 18.5 µM in [6]. Moreover, the GI50 in [7] is 12.1 µM; in assay [8] it was 29.1 µM; in assay [9], 19.1 µM; in [10], 22 µM. The total growth inhibition concentration (TGI) is 44.1 µM in [1]; above 85.2 µM in [2]; 60.8 µM in assay [3]; above 100 µM in [4]; above 83.3 µM in assay [5]; 43.5 µM in [6]. Also, the TGI in assay [7] came to 54.1 µM; in [8], 97.8 µM; in assay [9], 49.9 µM; in assay [10] it was 56.1 µM.

With `COc1ccc(CCN2COc3c([C@@H](C)CCC=C(C)C)ccc(C)c3C2)cc1OC`, the GI50 is 1.53 µM in assay [1]; 1.98 µM in assay [2]; 6.11 µM in [3]; 4.21 µM in assay [4]; 3.29 µM in assay [5]; 3.55 µM in assay [6]. Further, the GI50 in assay [7] was 1.96 µM; in assay [8], 11.8 µM; in assay [9] it was 8.53 µM; in [10], 2.06 µM. Also, the TGI turned out to be 3.18 µM in assay [1]; 4.16 µM in [2]; 20.2 µM in assay [3]; 20.2 µM in [4]; 11 µM in assay [5]; 14.1 µM in assay [6]. Further, the TGI in assay [7] was found to be 11.9 µM; in assay [8], 31.1 µM; in assay [9] it was 20.8 µM; in assay [10], 4.3 µM.

Turning to `C[C@]12CC[C@@H]3c4cc(OCC(F)(F)F)c(O)cc4/C(=N/O)C[C@H]3[C@@H]1CC[C@@H]2O`, the TGI in [1] was 29.6 µM; in assay [3], above 64 µM; in [4] it was 15.5 µM; in [5], 33.9 µM; in [6], 0.0269 µM; in assay [7] it was 21.5 µM. The TGI was 0.439 µM in [8], above 58.2 µM in [9] and 3.79 µM in assay [10]. Also, the GI50 is 0.029 µM in [2], 0.065 µM in assay [3], 0.0808 µM in assay [4] and 0.0362 µM in assay [10].

On to `CCn1c(-c2ccc(OC(C)=O)cc2)c(C)c2cc(OC(C)=O)ccc21`, for which the TGI was 76 µM in assay [1]; 86.9 µM in [2]; above 100 µM in [3]; above 100 µM in assay [4]; 40.4 µM in assay [5]; 42.1 µM in assay [6]. For the same compound, the TGI is 70.4 µM in [7], 74.5 µM in assay [8], 55 µM in assay [9] and 56.4 µM in assay [10].

Turning to `CC(C)C[C@H](NC(=O)/C=C/Cn1ccc2ccccc2c1=O)B(O)O`, the GI50 in assay [1] is 3.82 µM; in assay [2] it was 5.03 µM; in assay [3], 3.33 µM; in assay [4], 14.2 µM; in assay [5], 5.33 µM; in assay [6], 2.55 µM. The GI50 was 1.7 µM in assay [7], 10.5 µM in assay [8], 4.36 µM in assay [9] and 12.7 µM in [10]. Moreover, the total growth inhibition concentration (TGI) in assay [1] is 23 µM; in assay [2], above 100 µM; in [3] it was above 100 µM; in [4], 55.5 µM; in assay [5], above 100 µM; in [6] it was 7.88 µM. For the same compound, the TGI in assay [7] amounted to 7.95 µM; in assay [8] it was 92.2 µM; in assay [9] it was 39.8 µM; in assay [10] it was 97.5 µM.

In the case of `Cc1ccc2[nH]c(O)c(N=Nc3ccc(S(N)(=O)=O)cc3)c2c1`, the GI50 was above 22.4 µM in assay [1]; 23.5 µM in [2]; 9.74 µM in assay [3]; above 16.9 µM in [4]; 8.4 µM in [5]; 6.73 µM in [6]. Also, the GI50 in assay [7] is above 25 µM; in [8], 19.9 µM; in assay [9], above 25 µM; in assay [10], 6.86 µM. In addition, the TGI in assay [1] is above 25 µM; in assay [2], above 25 µM; in assay [3], above 25 µM; in assay [4], above 25 µM; in assay [5] it was above 25 µM; in assay [6], above 18.4 µM. In addition, the total growth inhibition concentration (TGI) in assay [7], in assay [8], in [9] and in assay [10] was above 25 µM in each case.

Consider `CC(C)(C[C@H]1CN(S(=O)(=O)c2cccc(C(F)(F)F)c2)c2cc(-c3cc(F)cc(OC(F)F)c3)ccc2O1)C(=O)O`, for which the GI50 in assay [1] was 10.2 µM; in [2], 6.98 µM; in assay [3], 11.1 µM; in [4] it was 12.1 µM; in [5], 3.98 µM; in assay [6], 3.76 µM. Also, the GI50 was 4.5 µM in assay [7], 13.2 µM in assay [8], 12.6 µM in [9] and 4.1 µM in assay [10]. Besides, the TGI in assay [1] came out at 25.1 µM; in assay [2], 20.7 µM; in [3] it was 23.1 µM; in [4], 35.5 µM; in assay [5], 22.4 µM; in assay [6], 14.1 µM. In addition, the total growth inhibition concentration (TGI) amounted to 16.9 µM in assay [7], 27.4 µM in assay [8], 25.9 µM in assay [9] and 16.3 µM in [10].

Regarding `CC1(C)[C@@H](OC(N)=O)[C@H]2O[C@H]2[C@]2(C=O)[C@H]3CC[C@]4(C)[C@@H](c5ccc(=O)oc5)[C@@H](Cl)C[C@]4(O)C3=CC[C@@H]12`, the concentration for 50% growth inhibition (GI50) in assay [1] is 0.00629 µM; in assay [2], 0.00489 µM; in assay [3] it was 0.00403 µM; in [4], 0.00603 µM; in assay [5], 0.00724 µM; in assay [6], 0.00487 µM. The GI50 in [7] was 0.00683 µM; in assay [8], 0.007 µM; in assay [9], 0.00606 µM; in assay [10] it was 0.00347 µM. Further, the concentration for total growth inhibition (TGI) in [1] came out at 0.0138 µM; in assay [2], 0.0105 µM; in assay [3], 0.00892 µM; in [4], 0.015 µM; in [5] it was 0.0281 µM; in assay [6], 0.00981 µM. Besides, the TGI in assay [7] is 0.0222 µM; in assay [8] it was 0.0203 µM; in assay [9], 0.0151 µM; in assay [10] it was 0.0077 µM.

`Cc1ccc(-c2nc3ccc(Cl)cc3c(=O)n2N2C(=O)CSC2c2ccccc2Cl)cc1` (configuration not stated): the GI50 in assay [1] was 5.97 µM; in assay [2], 3.62 µM; in assay [3] it was 0.627 µM; in assay [4], 4.58 µM; in assay [5] it was 26.9 µM; in assay [6] it was 5.44 µM. The GI50 in assay [7] is 5.91 µM; in assay [8], 2.89 µM; in assay [9] it was above 100 µM; in assay [10], 3.68 µM. The TGI in assay [1], in assay [2], in assay [3], in assay [4], in [5] and in [6] was above 100 µM throughout. The TGI in assay [7] was above 100 µM; in assay [8], 9.9 µM; in assay [9], above 100 µM; in assay [10], above 100 µM.

In the case of `C=C1CCC(CC[C@@H]2CC[C@]3(OC2)O[C@@]2(O)CC[C@]3(C)OC2(C)C)C(C)(C)[C@H]1C/C=C1/C(=O)OC[C@@H]1O` (some centres not stated), the TGI was determined as 5.99 µM in assay [1]; 7.78 µM in [2]; 6.89 µM in assay [3]; 5.04 µM in assay [4]; 2.94 µM in [5]; 7.41 µM in assay [6]. The TGI in assay [7] was 15.2 µM; in assay [8], 16.6 µM; in assay [9], 6.65 µM; in assay [10] it was 15.1 µM.

With `Cc1[nH]c2ccccc2c(=O)c1CC=C(Cl)Cl`, the GI50 in assay [1] was above 100 µM; in assay [2], 35.3 µM; in [3] it was 37.3 µM; in assay [4] it was 66.6 µM; in [5] it was 58 µM; in [6] it was 43.5 µM. In addition, the GI50 in assay [7] was 14.5 µM; in assay [8] it was 24.2 µM; in [9], above 100 µM; in assay [10], 72.5 µM. The TGI in assay [1], in assay [2], in assay [3], in assay [4], in assay [5] and in assay [6] was above 100 µM in each case. Also, the TGI in assay [7] is 86.8 µM; in assay [8], 55.6 µM; in assay [9], above 100 µM; in [10], above 100 µM.

In the case of `COc1cc(C(=O)c2cc(C)c3[nH]c4ccc(C)cc4c3c2C)cc(OC)c1OC`, the GI50 in assay [1], in assay [2], in [3], in [4], in assay [5] and in assay [6] was below 0.01 µM throughout. Besides, the GI50 was below 0.01 µM in assay [7], below 0.0307 µM in assay [8], below 0.01 µM in [9] and below 0.01 µM in [10]. For the same compound, the TGI in assay [1] was above 100 µM; in [2], 3.17 µM; in assay [3], above 100 µM; in assay [4] it was above 100 µM; in [5], above 100 µM; in [7], below 0.01 µM. The TGI in [8], in assay [9] and in assay [10] was above 100 µM each time.

As to `CCSc1nc(SCC)c2cn[nH]c2n1`, the GI50 is above 100 µM in assay [1]; above 100 µM in assay [2]; 44.3 µM in assay [3]; 62.7 µM in assay [4]; 26.5 µM in assay [5]; 38.8 µM in [6]. The GI50 is 2.47 µM in assay [7], 39 µM in assay [8], 69.1 µM in assay [9] and 31.9 µM in [10]. Also, the TGI in assay [1], in assay [2], in [3], in assay [4], in [5] and in assay [6] was above 100 µM in each case. Besides, the TGI is 13.1 µM in assay [7], above 100 µM in assay [8], above 100 µM in assay [9] and above 100 µM in assay [10].

The values above are taken from PubChem BioAssay (NCI).
